One assay concerns the target N-type calcium channel (Homo sapiens, UniProt Q00975). Kind of assay: Automated Electrophysiology Assay (QPatch-HT whole-cell patch clamp; low- and high-frequency stimulation). In kind it is cell-based.
Assay [1] addresses N-type calcium channel (α1B (Cav2.2), β3 and α2δ subunits) (Homo sapiens, UniProt Q00975). Kind of assay: Functional Assay: Antagonism of N-Type Calcium Channel (FDSS calcium mobilization, KCl depolarization). The note with it: for IC50: HEK cell line, 50 mM KCl depolarization, six-point concentration-response, read-out: FDSS IC50. The format is cell-based. Put shortly:
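HEK cells stably co-expressing α1B (Cav2.2), β3 and α2δ were loaded with calcium dye, then given compound with fluorescence recorded for 5 min before 50 mM KCl depolarisation and 3 min more reading. IC50 came from six-point curves of maximal fluorescence, normalised to KCl maximum and buffer minimum.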

The mark [2] stands for this setting: high-frequency stimulation (15th pulse), read-out: QPatch at High Frequency % Inhibition.
The mark [3] stands for this setting: low frequency, read-out: QPatch at Low Frequency % Inhibition.

The structures appear in SMILES notation. Read-outs that look alike come from different tables or passages of the source.

N-type calcium channel, sequence (Q00975 whole entry): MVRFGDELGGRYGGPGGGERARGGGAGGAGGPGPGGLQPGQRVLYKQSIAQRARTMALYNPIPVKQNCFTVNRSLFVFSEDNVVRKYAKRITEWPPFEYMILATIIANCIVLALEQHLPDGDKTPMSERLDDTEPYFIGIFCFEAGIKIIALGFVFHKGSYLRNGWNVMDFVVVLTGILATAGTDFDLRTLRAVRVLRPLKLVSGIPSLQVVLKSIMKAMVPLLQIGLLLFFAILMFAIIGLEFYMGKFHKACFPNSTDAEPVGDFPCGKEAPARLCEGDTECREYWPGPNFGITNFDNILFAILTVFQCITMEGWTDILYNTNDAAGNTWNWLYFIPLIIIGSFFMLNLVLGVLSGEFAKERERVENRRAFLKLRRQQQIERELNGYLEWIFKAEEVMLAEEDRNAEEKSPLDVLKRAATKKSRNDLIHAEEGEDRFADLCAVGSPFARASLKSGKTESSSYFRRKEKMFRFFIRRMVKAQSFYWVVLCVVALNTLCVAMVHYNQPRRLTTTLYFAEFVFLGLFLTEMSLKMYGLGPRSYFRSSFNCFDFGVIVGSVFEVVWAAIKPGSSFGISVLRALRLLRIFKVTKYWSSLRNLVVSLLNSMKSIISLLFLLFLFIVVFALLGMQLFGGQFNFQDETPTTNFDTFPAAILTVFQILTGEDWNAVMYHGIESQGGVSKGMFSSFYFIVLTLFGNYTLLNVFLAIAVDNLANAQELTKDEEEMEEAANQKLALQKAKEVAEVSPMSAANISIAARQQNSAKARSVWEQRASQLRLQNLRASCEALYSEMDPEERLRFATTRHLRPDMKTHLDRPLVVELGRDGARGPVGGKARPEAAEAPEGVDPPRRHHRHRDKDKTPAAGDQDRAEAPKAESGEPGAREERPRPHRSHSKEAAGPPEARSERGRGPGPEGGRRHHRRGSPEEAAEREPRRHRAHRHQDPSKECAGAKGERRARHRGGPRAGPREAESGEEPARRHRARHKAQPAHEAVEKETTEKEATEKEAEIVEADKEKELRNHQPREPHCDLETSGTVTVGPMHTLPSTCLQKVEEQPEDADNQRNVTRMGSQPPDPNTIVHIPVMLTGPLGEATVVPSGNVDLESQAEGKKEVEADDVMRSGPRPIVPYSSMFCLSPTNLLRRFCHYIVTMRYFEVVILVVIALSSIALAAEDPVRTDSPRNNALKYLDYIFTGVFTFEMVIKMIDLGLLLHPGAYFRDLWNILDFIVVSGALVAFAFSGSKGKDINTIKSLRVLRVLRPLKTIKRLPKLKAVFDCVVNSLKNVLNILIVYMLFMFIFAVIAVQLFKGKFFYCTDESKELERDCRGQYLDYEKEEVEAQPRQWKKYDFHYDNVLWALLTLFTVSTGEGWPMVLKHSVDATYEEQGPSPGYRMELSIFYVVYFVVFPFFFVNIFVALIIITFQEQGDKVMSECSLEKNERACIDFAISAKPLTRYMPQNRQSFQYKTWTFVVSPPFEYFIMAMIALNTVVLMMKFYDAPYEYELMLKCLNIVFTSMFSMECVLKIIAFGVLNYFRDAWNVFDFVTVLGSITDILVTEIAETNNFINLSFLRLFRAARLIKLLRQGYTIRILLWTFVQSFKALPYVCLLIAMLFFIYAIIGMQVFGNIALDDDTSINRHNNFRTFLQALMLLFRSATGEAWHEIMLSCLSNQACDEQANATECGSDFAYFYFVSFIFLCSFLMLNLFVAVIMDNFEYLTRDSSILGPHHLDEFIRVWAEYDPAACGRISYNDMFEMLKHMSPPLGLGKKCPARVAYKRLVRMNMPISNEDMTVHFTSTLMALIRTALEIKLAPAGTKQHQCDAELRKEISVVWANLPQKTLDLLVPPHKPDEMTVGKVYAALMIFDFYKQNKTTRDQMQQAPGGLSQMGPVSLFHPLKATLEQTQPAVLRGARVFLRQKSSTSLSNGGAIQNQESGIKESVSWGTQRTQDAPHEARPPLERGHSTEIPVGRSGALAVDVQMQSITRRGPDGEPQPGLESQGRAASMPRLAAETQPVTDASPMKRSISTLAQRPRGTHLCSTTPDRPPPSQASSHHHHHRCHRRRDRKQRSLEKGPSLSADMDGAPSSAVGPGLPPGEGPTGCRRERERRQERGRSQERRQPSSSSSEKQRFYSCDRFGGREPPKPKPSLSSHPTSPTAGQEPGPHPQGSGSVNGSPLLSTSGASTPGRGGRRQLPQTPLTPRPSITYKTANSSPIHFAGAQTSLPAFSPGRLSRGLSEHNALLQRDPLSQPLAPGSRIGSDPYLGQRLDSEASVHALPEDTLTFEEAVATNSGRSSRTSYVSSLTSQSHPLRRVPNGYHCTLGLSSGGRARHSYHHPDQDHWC
N-type calcium channel, sequence (P54284 whole entry partner): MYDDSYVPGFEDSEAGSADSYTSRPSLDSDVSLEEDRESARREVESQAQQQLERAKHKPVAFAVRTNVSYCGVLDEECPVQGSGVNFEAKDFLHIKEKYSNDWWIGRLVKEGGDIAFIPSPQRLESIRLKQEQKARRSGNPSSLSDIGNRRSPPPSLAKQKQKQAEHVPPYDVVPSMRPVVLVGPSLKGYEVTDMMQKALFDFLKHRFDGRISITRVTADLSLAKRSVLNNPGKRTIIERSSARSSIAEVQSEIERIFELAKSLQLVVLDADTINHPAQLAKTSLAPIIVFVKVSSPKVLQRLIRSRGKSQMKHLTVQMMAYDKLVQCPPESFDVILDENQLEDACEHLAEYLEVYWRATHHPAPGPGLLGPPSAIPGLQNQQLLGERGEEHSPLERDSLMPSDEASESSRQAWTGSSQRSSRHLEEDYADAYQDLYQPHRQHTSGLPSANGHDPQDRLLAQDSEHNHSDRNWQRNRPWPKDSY
N-type calcium channel, sequence (P54289 25-946 partner limits assumed): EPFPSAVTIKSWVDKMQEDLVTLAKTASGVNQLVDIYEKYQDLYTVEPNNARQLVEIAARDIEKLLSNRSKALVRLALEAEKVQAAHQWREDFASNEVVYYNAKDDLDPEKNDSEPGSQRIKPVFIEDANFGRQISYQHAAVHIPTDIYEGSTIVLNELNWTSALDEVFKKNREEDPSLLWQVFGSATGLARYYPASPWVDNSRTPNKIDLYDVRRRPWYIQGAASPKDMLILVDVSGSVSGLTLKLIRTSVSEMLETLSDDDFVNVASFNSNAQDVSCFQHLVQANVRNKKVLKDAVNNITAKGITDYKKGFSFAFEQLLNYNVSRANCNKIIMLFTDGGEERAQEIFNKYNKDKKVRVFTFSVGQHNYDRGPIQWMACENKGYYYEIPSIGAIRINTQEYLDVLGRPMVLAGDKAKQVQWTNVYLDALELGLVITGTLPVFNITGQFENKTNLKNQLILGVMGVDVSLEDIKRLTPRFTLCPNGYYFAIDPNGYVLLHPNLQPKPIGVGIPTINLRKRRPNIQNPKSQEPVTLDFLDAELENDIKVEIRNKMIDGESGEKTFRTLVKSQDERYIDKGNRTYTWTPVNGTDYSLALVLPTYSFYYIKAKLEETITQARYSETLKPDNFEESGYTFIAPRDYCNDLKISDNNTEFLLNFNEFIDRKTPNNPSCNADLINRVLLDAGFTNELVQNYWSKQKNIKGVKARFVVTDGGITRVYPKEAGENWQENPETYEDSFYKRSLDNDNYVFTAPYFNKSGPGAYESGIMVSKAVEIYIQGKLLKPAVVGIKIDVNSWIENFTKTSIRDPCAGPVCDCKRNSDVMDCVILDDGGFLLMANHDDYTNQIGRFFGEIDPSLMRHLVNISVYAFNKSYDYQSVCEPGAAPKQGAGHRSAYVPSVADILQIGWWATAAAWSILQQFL
N-type calcium channel, sequence (P54289 947-1103 partner limits assumed): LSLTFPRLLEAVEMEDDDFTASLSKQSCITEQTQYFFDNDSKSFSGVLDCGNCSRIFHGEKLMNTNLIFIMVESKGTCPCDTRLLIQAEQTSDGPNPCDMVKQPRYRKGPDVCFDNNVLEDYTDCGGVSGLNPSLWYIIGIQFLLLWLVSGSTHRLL
N-type calcium channel (α1B (Cav2.2), β3 and α2δ subunits), sequence (Q00975 whole entry): as the sequence (Q00975 whole entry) above
N-type calcium channel (α1B (Cav2.2), β3 and α2δ subunits), sequence (P54284 whole entry partner): as the sequence (P54284 whole entry partner) above
N-type calcium channel (α1B (Cav2.2), β3 and α2δ subunits), sequence (P54289 25-946 partner limits assumed): as the sequence (P54289 25-946 partner limits assumed) above
N-type calcium channel (α1B (Cav2.2), β3 and α2δ subunits), sequence (P54289 947-1103 partner limits assumed): as the sequence (P54289 947-1103 partner limits assumed) above

Take `COc1ccccc1-n1nc2c(c1-c1ccc(Cl)cc1)CC(CCOC(=O)N1CCOCC1)C2` (centres unmarked) [Compound 2, 2-[3-(4-chlorophenyl)-2-(2-methoxyphenyl)-2,4,5,6-tetrahydrocyclopenta[c]pyrazol-5-yl]ethyl morpholine-4-carboxylate]: at N-type calcium channel (setting [2]), the inhibition at 0.25 µM came out at 58%, the inhibition at 1 µM was 69% and the inhibition at 5 µM was determined as 97%. Moreover, on N-type calcium channel (setting [3]), the inhibition at 0.25 µM came to 54%, the inhibition at 1 µM amounted to 76% and the inhibition at 5 µM was determined as 90%. For the same compound, the IC50 in assay [1] is 0.033 µM.

Consider `COc1ccccc1-n1nc2c(c1-c1ccc(Cl)cc1)CC(CCOC(=O)N(C)C)C2` (centres unmarked) [Compound 3, 2-[3-(4-chlorophenyl)-2-(2-methoxyphenyl)-2,4,5,6-tetrahydrocyclopenta[c]pyrazol-5-yl]ethyl dimethylcarbamate], for which, at N-type calcium channel (setting [2]), the inhibition at 0.25 µM was 57%, the inhibition at 1 µM was determined as 76% and the inhibition at 5 µM came to 88%. Moreover, at N-type calcium channel (setting [3]), the inhibition at 0.25 µM is 35%, the inhibition at 1 µM is 69% and the inhibition at 5 µM turned out to be 93%. Moreover, the IC50 in assay [1] was 0.026 µM.

As for `CCOC(=O)C1Cc2nn(-c3ccccc3OC)c(-c3ccc(Cl)cc3)c2C1` (centres unmarked) [Compound 5, ethyl 3-(4-chlorophenyl)-2-(2-methoxyphenyl)-2,4,5,6-tetrahydrocyclopenta[c]pyrazole-5-carboxylate], the values for the inhibition at 5 µM at N-type calcium channel (setting [2]) and at N-type calcium channel (setting [3]) were 85% and 82%, respectively. Also, the 50% inhibitory concentration (IC50) in assay [1] is 0.043 µM.

In the case of `COc1ccccc1-n1nc2c(c1-c1ccc(Cl)cc1)CC(CNS(C)(=O)=O)C2` (centres unmarked) [Compound 8, N-{[3-(4-chlorophenyl)-2-(2-methoxyphenyl)-2,4,5,6-tetrahydrocyclopenta[c]pyrazol-5-yl]methyl}methanesulfonamide], on N-type calcium channel (setting [2]), the inhibition at 0.25 µM is -12% and the inhibition at 1 µM was 57%. On N-type calcium channel (setting [3]), the inhibition at 0.25 µM is -9% and the inhibition at 1 µM was 62%. In assay [1], the inhibition at 0.33 µM amounted to 96% and the IC50 was 0.055 µM.

Turning to `COc1ccccc1-n1nc2c(c1-c1ccc(Cl)cc1)CC(CCNS(C)(=O)=O)C2` (centres unmarked) [Compound 11, N-{2-[3-(4-chlorophenyl)-2-(2-methoxyphenyl)-2,4,5,6-tetrahydrocyclopenta[c]pyrazol-5-yl]ethyl}methanesulfonamide], the inhibition at 1 µM on N-type calcium channel (setting [2]) was 28%. For the same compound, the inhibition at 1 µM at N-type calcium channel (setting [3]) amounted to 29%. For the same compound, in assay [1], the inhibition at 0.33 µM turned out to be 99% and the IC50 is 0.073 µM.

Regarding `COc1ccccc1-n1nc2c(c1-c1ccc(Cl)cc1)CC(CCNC(C)=O)C2` (centres unmarked) [Compound 12, N-{2-[3-(4-chlorophenyl)-2-(2-methoxyphenyl)-2,4,5,6-tetrahydrocyclopenta[c]pyrazol-5-yl]ethyl}acetamide], the inhibition at 1 µM on N-type calcium channel (setting [2]) turned out to be 26%; on N-type calcium channel (setting [3]) it was 15%. Further, in assay [1], the IC50 is 0.07 µM.

Turning to `COc1ccccc1-n1nc2c(c1-c1ccc(Cl)cc1)CC(CCNC(=O)OC(C)(C)C)C2` (centres unmarked) [Compound 13, tert-butyl{2-[3-(4-chlorophenyl)-2-(2-methoxyphenyl)-2,4,5,6-tetrahydrocyclopenta[c]pyrazol-5-yl]ethyl}carbamate], the inhibition at 1 µM was 67% at N-type calcium channel (setting [2]) and 42% at N-type calcium channel (setting [3]). Also, in assay [1], the IC50 turned out to be 0.038 µM.

Take `CCc1ccccc1-n1nc2c(c1-c1ccc(Cl)cc1)CC(CNC(=O)OC(C)(C)C)C2` (centres unmarked) [Compound 16, tert-butyl{[3-(4-chlorophenyl)-2-(2-ethylphenyl)-2,4,5,6-tetrahydrocyclopenta[c]pyrazol-5-yl]methyl}carbamate]: the inhibition at 1 µM worked out at 43% at N-type calcium channel (setting [2]) and 19% on N-type calcium channel (setting [3]). The IC50 in assay [1] turned out to be 0.13 µM.

Regarding `O=C1Cc2nn(-c3ccccc3OC(F)(F)F)c(-c3ccc(Cl)cc3)c2C1` [Compound 27, 3-(4-chlorophenyl)-2-[2-(trifluoromethoxy)phenyl]-2,6-dihydrocyclopenta[c]pyrazol-5(4H)-one], the inhibition at 0.1 µM at N-type calcium channel (setting [2]) is -14%; at N-type calcium channel (setting [3]) it was -16%. Further, the IC50 in assay [1] turned out to be 0.011 µM.

As for `COc1ccccc1-n1nc2c(c1-c1ccc(Cl)cc1)CC(OC(=O)N(C)C)C2` (centres unmarked) [Compound 28, 3-(4-chlorophenyl)-2-(2-methoxyphenyl)-2,4,5,6-tetrahydrocyclopenta[c]pyrazol-5-yl dimethylcarbamate], the inhibition at 0.1 µM was 45% on N-type calcium channel (setting [2]) and 25% on N-type calcium channel (setting [3]). In assay [1], the IC50 was found to be 0.015 µM.

With `COc1ccccc1-n1nc2c(c1-c1ccc(Cl)cc1)CC(OC(=O)N1CCOCC1)C2` (centres unmarked) [Compound 29, 3-(4-chlorophenyl)-2-(2-methoxyphenyl)-2,4,5,6-tetrahydrocyclopenta[c]pyrazol-5-yl morpholine-4-carboxylate], the inhibition at 0.1 µM is 21% at N-type calcium channel (setting [2]) and -8% on N-type calcium channel (setting [3]). Moreover, in assay [1], the IC50 amounted to 0.043 µM.

As to `CCOc1ccccc1-n1nc2c(c1-c1ccc(Cl)cc1)CC(OC(=O)N(C)C)C2` (centres unmarked) [Compound 30, 3-(4-chlorophenyl)-2-(2-ethoxyphenyl)-2,4,5,6-tetrahydrocyclopenta[c]pyrazol-5-yl dimethylcarbamate], the inhibition at 0.1 µM is 25% at N-type calcium channel (setting [2]) and 9% on N-type calcium channel (setting [3]). For the same compound, the IC50 in assay [1] was found to be 0.028 µM.

`CCOc1ccccc1-n1nc2c(c1-c1ccc(Cl)cc1)CC(OC(=O)N1CCOCC1)C2` (centres unmarked) [Compound 31, 3-(4-chlorophenyl)-2-(2-ethoxyphenyl)-2,4,5,6-tetrahydrocyclopenta[c]pyrazol-5-yl morpholine-4-carboxylate]: the inhibition at 0.1 µM was 22% at N-type calcium channel (setting [2]) and 14% on N-type calcium channel (setting [3]). Further, the IC50 in assay [1] stood at 0.018 µM.

For the compound `COc1ccccc1-n1nc2c(c1-c1ccc(Cl)cc1)CC(NS(C)(=O)=O)C2` (centres unmarked) [Compound 32, N-[3-(4-chlorophenyl)-2-(2-methoxyphenyl)-2,4,5,6-tetrahydrocyclopenta[c]pyrazol-5-yl]methanesulfonamide], the inhibition at 0.1 µM is 20% at N-type calcium channel (setting [2]) and 18% on N-type calcium channel (setting [3]). In addition, the IC50 in assay [1] was determined as 0.026 µM.

For `COc1ccccc1-n1nc2c(c1-c1ccc(Cl)cc1)CC(NS(=O)(=O)C(C)C)C2` (centres unmarked) [Compound 33, N-[3-(4-chlorophenyl)-2-(2-methoxyphenyl)-2,4,5,6-tetrahydrocyclopenta[c]pyrazol-5-yl]propane-2-sulfonamide], the figures for the inhibition at 0.1 µM at N-type calcium channel (setting [2]) and at N-type calcium channel (setting [3]) were 42% and 35%, respectively. Moreover, in assay [1], the IC50 is 0.018 µM.

Take `COc1ccccc1-n1nc2c(c1-c1ccc(Cl)cc1)CC(NS(=O)(=O)N(C)C)C2` (centres unmarked) [Compound 34, N′-[3-(4-chlorophenyl)-2-(2-methoxyphenyl)-2,4,5,6-tetrahydrocyclopenta[c]pyrazol-5-yl]-N,N-dimethylsulfamide]: the inhibition at 0.1 µM stood at 37% at N-type calcium channel (setting [2]) and 34% at N-type calcium channel (setting [3]). Further, the IC50 in assay [1] was 0.014 µM.

`CCOc1ccccc1-n1nc2c(c1-c1ccc(Cl)cc1)CC(=O)C2` [Compound 36, 3-(4-chlorophenyl)-2-(2-ethoxyphenyl)-2,6-dihydrocyclopenta[c]pyrazol-5(4H)-one]: the inhibition at 0.1 µM at N-type calcium channel (setting [2]) was determined as 26%; at N-type calcium channel (setting [3]) it was 18%. Moreover, the IC50 in assay [1] is 0.029 µM.

Turning to `COc1ccccc1-n1nc2c(c1-c1ccc(Cl)cc1)CC(N(C)S(C)(=O)=O)C2` (centres unmarked) [Compound 37, N-[3-(4-chlorophenyl)-2-(2-methoxyphenyl)-2,4,5,6-tetrahydrocyclopenta[c]pyrazol-5-yl]-N-methylmethanesulfonamide], the inhibition at 0.1 µM was 46% at N-type calcium channel (setting [2]) and 44% at N-type calcium channel (setting [3]). In assay [1], the IC50 was 0.0064 µM.

Take `CCOc1ccccc1-n1nc2c(c1-c1ccc(Cl)cc1)CC(N1C(=O)CCC1=O)C2` (centres unmarked) [Compound 38, 1-[3-(4-chlorophenyl)-2-(2-ethoxyphenyl)-2,4,5,6-tetrahydrocyclopenta[c]pyrazol-5-yl]pyrrolidine-2,5-dione]: the inhibition at 0.1 µM turned out to be 53% at N-type calcium channel (setting [2]) and 47% at N-type calcium channel (setting [3]). Besides, the IC50 in assay [1] is 0.0075 µM.

For `CCOc1ccccc1-n1nc2c(c1-c1ccc(Cl)cc1)CC(n1ccnc1)C2` (centres unmarked) [Compound 39, 3-(4-chlorophenyl)-2-(2-ethoxyphenyl)-5-(1H-imidazol-1-yl)-2,4,5,6-tetrahydrocyclopenta[c]pyrazole], at N-type calcium channel (setting [2]), the inhibition at 0.1 µM turned out to be 29%, the inhibition at 0.25 µM turned out to be 47% and the inhibition at 1 µM was determined as 72%. Besides, at N-type calcium channel (setting [3]), the inhibition at 0.1 µM turned out to be 13%, the inhibition at 0.25 µM amounted to 34% and the inhibition at 1 µM came out at 51%. For the same compound, in assay [1], the inhibition at 0.33 µM was 81% and the IC50 was 0.038 µM.

`CCc1nc(CC)n([C@@H]2Cc3nn(-c4ccccc4OC)c(-c4ccc(C#N)cc4)c3C2)c1CC` [Compound 137, 4-[(5S)-2-(2-methoxyphenyl)-5-(2,4,5-triethyl-1H-imidazol-1-yl)-2,4,5,6-tetrahydrocyclopenta[c]pyrazol-3-yl]benzonitrile]: the inhibition at 0.33 µM in assay [1] came out at 49%.

For `CCc1nc(C)n([C@@H]2Cc3nn(-c4ccccc4OC)c(-c4ccc(C#N)cc4)c3C2)c1CC` [Compound 138, 4-[(5S)-5-(4,5-diethyl-2-methyl-1H-imidazol-1-yl)-2-(2-methoxyphenyl)-2,4,5,6-tetrahydrocyclopenta[c]pyrazol-3-yl]benzonitrile], in assay [1], the inhibition at 0.33 µM amounted to 63% and the IC50 stood at 0.32 µM.

The values above are taken from patent US8853418B2, “Cyclopentylpyrazoles as N-type calcium channel blockers” (Janssen Pharmaceutica NV, priority 2012, dated 2014).
